# Measured values from patent US20220050096A1, “ANALYTE-SENSITIVE PROBES AND CONTACT LENS FOR DIAGNOSIS OF OCULAR PATHOLOGIES” (University Of Maryland, Baltimore, priority 2020, published 2022).
# Test: Chloride-dependent intensity decay analysis of SPQ-C18 in MyDay contact lenses, 20 mM MOPS pH 7.3
# Assay type: physicochemical
# Experimental: Fluorescence Spectroscopic Measurements. Fluorescence intensities and intensity decays were measured using a Varian™ Eclipse 4 spectrofluorometer and a FluoTime300 instrument from PicoQuant™ (Berlin, Germany) and analyzed with the EasyTau™ software. The excitation source was a 473 nm laser diode with a repetition rate of 40 MHZ and a pulse width less than 100 ps. In other embodiments, the excitation source for SG-PL was at 495 nm from a Solea™ supercontinuum laser (PicoQuant™, Germany) and a 375 nm laser diode (PDL 375, PicoQuant™), a repetition rate of 40 MHz, and a pulse width less than 100 ps. Some intensity and lifetime measurements for SG-PL (as indicated) were performed using Alba V confocal fluorescence lifetime microscopy, FLIM (ISS, Urbana, Ill.), with excitation source of a 473 nm laser diode with a repetition rate of 40 MHz and a pulse width near 250 ps.
# Intensity decays were measured at the emission maximum with the band of 10 to 20 nm, analyzed in terms of the multi-exponential model:
# I(t)=Σαi exp(−t/ti) (equation 1)
# where ti are the individual decay times and αi the initial time-zero amplitudes. The mean decay time can be represented in two ways. The average lifetime is given by:
# where Σαi=1.0 and Σfi=1.0. The term fi=αi τi is proportional to the fractional contribution of each component to the total intensity decay. The term τi/Σαi τi is the fractional contribution to the steady state emission. Here, we use the amplitude-weighted lifetime given by
# which is appropriate when the emission is from a single fluorophore with a changing quantum yield. For a single exponential decay, the lifetime is given by τ=1.0/(knr+Γ) and the quantum yield is given by Q=Γ/(knr+Γ) where knr is the sum of all non-radiative decay rates and Γ is the radiative decay rate. The value of Γ is determined by the molecular extinction coefficient that remains constant under most conditions. For a single type of fluorophore with a constant value of Γ the normalized αi values represent the molecular fraction of each decay time component. The value of αi and τi were determined by non-linear least squares fitting using PicoQuant™ software.
# Quenching by Chloride. Collisional quenching occurs, for example, when SPQ-C18 (also referred to as OD-MQB (N-Octadecyl-6-methoxyquinolinium bromide)) has a diffusion collision with a chloride ion. The intensities (I) and lifetimes (6) are analyzed using the Stern-Volmer equation,
# SPQ-C18 was synthesized using 6-methoxy quinolinium (SPQ) and 1-bromooctadecane (C18) as described in the art. Lenses were labeled by incubation with 3 ml of a 1 μM solution of SPQ-C18 in methanol-water. SPQ-C18 bound rapidly to the Biofinity™ lenses. […] Unless stated otherwise, all spectral measurements conducted for the present study were performed in 20 mM MOPS buffer, 8 mM KCl, pH 7.2, at room temperature.
structure (smiles),measurement,setting,value
"CCCCCCCCCCCCCCCCCC[n+]1cccc2cc(OC)ccc21 [SPQ-C18, N-Octadecyl-6-methoxyquinolinium bromide]",f1,NaCl 0 mM,0.074
same,f2,NaCl 0 mM,0.191
same,f3,NaCl 0 mM,0.735
same,α1,NaCl 0 mM,0.560
same,α2,NaCl 0 mM,0.187
same,α3,NaCl 0 mM,0.253
same,τ1,NaCl 0 mM,1.03 ns
same,τ2,NaCl 0 mM,8.00 ns
same,τ3,NaCl 0 mM,22.78 ns
same,τf,NaCl 0 mM,18.36 ns
same,τα,NaCl 0 mM,7.83 ns
same,f1,NaCl 10 mM,0.078
same,f2,NaCl 10 mM,0.315
same,f3,NaCl 10 mM,0.607
same,α1,NaCl 10 mM,0.496
same,α2,NaCl 10 mM,0.290
same,α3,NaCl 10 mM,0.214
same,τ1,NaCl 10 mM,1.05 ns
same,τ2,NaCl 10 mM,7.22 ns
same,τ3,NaCl 10 mM,18.80 ns
same,τf,NaCl 10 mM,13.76 ns
same,τα,NaCl 10 mM,6.63 ns
same,f1,NaCl 20 mM,0.102
same,f2,NaCl 20 mM,0.306
same,f3,NaCl 20 mM,0.592
same,α1,NaCl 20 mM,0.554
same,α2,NaCl 20 mM,0.263
same,α3,NaCl 20 mM,0.183
same,τ1,NaCl 20 mM,1.12 ns
same,τ2,NaCl 20 mM,7.04 ns
same,τ3,NaCl 20 mM,19.59 ns
same,τf,NaCl 20 mM,13.86 ns
same,τα,NaCl 20 mM,6.05 ns
same,f1,NaCl 40 mM,0.126
same,f2,NaCl 40 mM,0.375
same,f3,NaCl 40 mM,0.499
same,α1,NaCl 40 mM,0.590
same,α2,NaCl 40 mM,0.275
same,α3,NaCl 40 mM,0.136
same,τ1,NaCl 40 mM,1.06 ns
same,τ2,NaCl 40 mM,6.78 ns
same,τ3,NaCl 40 mM,18.24 ns
same,τf,NaCl 40 mM,11.78 ns
same,τα,NaCl 40 mM,4.96 ns
same,f1,NaCl 80 mM,0.148
same,f2,NaCl 80 mM,0.373
same,f3,NaCl 80 mM,0.478
same,α1,NaCl 80 mM,0.601
same,α2,NaCl 80 mM,0.284
same,α3,NaCl 80 mM,0.115
same,τ1,NaCl 80 mM,1.05 ns
same,τ2,NaCl 80 mM,5.58 ns
same,τ3,NaCl 80 mM,17.70 ns
same,τf,NaCl 80 mM,10.71 ns
same,τα,NaCl 80 mM,4.25 ns
same,f1,NaCl 140 mM,0.177
same,f2,NaCl 140 mM,0.368
same,f3,NaCl 140 mM,0.455
same,α1,NaCl 140 mM,0.649
same,α2,NaCl 140 mM,0.253
same,α3,NaCl 140 mM,0.099
same,τ1,NaCl 140 mM,1.01 ns
same,τ2,NaCl 140 mM,5.39 ns
same,τ3,NaCl 140 mM,17.05 ns
same,τf,NaCl 140 mM,9.92 ns
same,τα,NaCl 140 mM,3.70 ns
same,f1,NaCl 220 mM,0.191
same,f2,NaCl 220 mM,0.425
same,f3,NaCl 220 mM,0.284
same,α1,NaCl 220 mM,0.636
same,α2,NaCl 220 mM,0.282
same,α3,NaCl 220 mM,0.081
same,τ1,NaCl 220 mM,0.94 ns
same,τ2,NaCl 220 mM,4.71 ns
same,τ3,NaCl 220 mM,14.81 ns
same,τf,NaCl 220 mM,7.87 ns
same,τα,NaCl 220 mM,3.13 ns
